Data as given in patent US4225611A, “Novel n-substituted benzenesulfonamide, process for its preparation and medicaments containing it” (Choay S.A., priority 1977, dated 1980).

Legend:
[1] = acute toxicity in the rat, by the oral route; conditions: in vivo, single dose
Excerpt: The acute toxicity is expressed by the lethal dose 50, that is to say the dose resulting in the death of 50% of the animals.
This study has been carried out on groups of 10 Swiss male mice whose weight varied from 24 to 26 g, and on groups of six Wistar male rats of 120 to 125 g.
The administration was made in a single dose by the oral route in the rats and the mice, and also by the intravenous route in the case of the mice.

[2] = system: acetyl salicylic acid ulcer; assay: anti-ulcer activity: acetyl salicylic acid ulcer; assay type: in vivo, rat; conditions: 50 mg/kg oral, 1 hour before 50 mg/kg AAS oral; sacrifice 24 hours later; versus controls
Method: (§1) The compound according to the invention was studied for its preventive properties with respect to ulcers generated by various means. Thus the ratio in the reduction of gastric attacks caused by acetyl salicylic acid and phenylbutazone was determined, as well as the ratio in the reduction of stress ulcers and SHAY ulcers, or again vasomotor reactions to polymyxine B.
(§2) For these tests, male Wistar rats were used (from 250 to 350 g according to the test). For each test and each dose, 10 animals at least were treated.
(§3) In the case of acetyl salicylic acid (AAS) and of phenylbutazone, the test procedure was as follows:
(§4) administration by the oral route of 50 mg/kg of the compound in aqueous solution with 3% of gum arabic after 23 hours fasting;
(§5) initiation of ulcerogenesis 1 hour later, by the administration of 50 mg/kg of AAS by the oral route or of 100 mg/kg of phenylbutazone by the intraperitoneal route;
(§6) sacrifice of the animals 24 hours later and examination of the gastric mucous membrane.
(§7) The control animals only received AAS or phenylbutazone.
(§8) In all the preceding tests, the results were obtained by examination of the gastric mucous membrane to determine the presence either of a congested area, or of more or less serious ulcerations.
(§9) Study of the levels of reduction of attacks in the treated animals, with respect to the controls, was effected by the method of O. FOUSSARD and G. […]

[3] = system: phenylbutazone ulcer; assay: anti-ulcer activity: phenylbutazone ulcer; assay type: in vivo, rat; conditions: 50 mg/kg oral, 1 hour before 100 mg/kg phenylbutazone intraperitoneal; sacrifice 24 hours later; versus controls
Method: as §1, §2, §3, §4, §5, §6, §7, §8, §9

[4] = system: stress ulcer; assay: anti-ulcer activity: stress ulcer (total immobilization); assay type: in vivo, rat; conditions: 50 mg/kg oral, 1 hour before 18 hours immobilization; versus controls
Method: as §1, §2
For the stress ulcer, the rats, 1 hour after having received 50 mg/kg of the product according to the invention by the oral route, were totally immobilized for 18 hours in a cylindrical wire cage, according to the technique of ROSSI (C.R. Soc. Biol., 1956, 150, 2124-2126) and BONFILS (C.R. Soc. Biol., 1957, 151, 1149-1150). They were then sacrificed and examined.
as §8
(§10) Study of the levels of reduction of attacks in the treated animals, with respect to the controls, was effected by the method of O. FOUSSARD and G. […] (Therapie, 1972, 27, 705-721) applying the formula of J. M. LWOFF (J. Pharmacol., 1971, 2, 1, 81-83).

[5] = system: SHAY ulcer; assay: anti-ulcer activity: SHAY ulcer (ligature of the pylorus); assay type: in vivo, rat; conditions: 100 mg/kg oral, 1 hour before ligature of the pylorus, versus controls
Method: as §1, §2
The SHAY ulcer was produced in the fasting rat after 48 hours. 47 hours after the beginning of the fast, by the oral route, 100 mg/kg of the product to be tested was administered, then, 1 hour later, ligature of the pylorus was effected after light anesthesia with ether. The sacrifice of the animals took place 12 to 24 hours after the ligature.
as §8, §10

[6] = system: vasomotor lesions and hemorhagia of the glandular portion of the stomach; assay: anti-ulcerogenic action against polymyxine B vasomotor lesions; assay type: in vivo, rat; conditions: 100 mg/kg oral before 1.5 mg/kg polymyxine B intraperitoneal; sacrifice two hours later; 15 rats versus 15 controls
Method: as §1, §2
In the tests with polymyxine B, 100 mg/kg of the compound according to the invention was administered by the oral route before the intraperitoneal injection of 1.5 mg/kg of polymyxine B, then, two hours later after this last injection, the rats were sacrificed. The injection of polymyxine B has the effect of causing vasomotor lesions and hemorhagia of the glandular portion of the stomach. It is by measurement of the extent of these lesions that the anti-ulcerogenic action of the compound was determined (A. BELL and Coll., Biologie et gastro-enterologie, 1969, 2, 117-126-Suppt. No. 2 aux Archives francaises des maladies de l'appareil digestif, 1969, 58, 10-11, October-November).

With `CCN1CCCC1CNS(=O)(=O)c1cc(Cl)c(N)cc1OC` (stereo not shown) [(I), chloro-5 methoxy-2 amino-4 N-(N-ethyl methyl-2 pyrrolidino) benzenesulfonamide] the LD50 [1] was 1500 mg/kg, the “level of reduction of attacks, acetyl salicylic acid ulcer” value [2] was 40.0% and the “level of reduction of attacks, phenylbutazone ulcer” value [3] was 46.9%. For the same compound, the “level of reduction of attacks, stress ulcer” value [4] was 50.8%, the “level of reduction of attacks, SHAY ulcer, after 12 hours of ligature” value ([5]; 12 hours of ligature) was 60.4% and the “level of reduction of attacks, SHAY ulcer, after 24 hours of ligature” value ([5]; 24 hours of ligature) was 46.1%. For the same compound, the “reduction in the lesions (polymyxine B)” value [6] was ~63%.
